Reference: ChEMBL document CHEMBL3045603, “Synthesis and Microbiological Evaluation of Some N-Methyl Piperidone Oxime Ethers” (2005)
Values after ≈ are worked out from the molar mass of the structure shown. Active and inactive are the calls of the source. No cut-off for these calls is given here.

How the values were obtained:
Candida albicans [1] = test: Antifungal activity against Candida albicans after 72 to 96 hr by two-fold serial dilution method; type: functional
Aspergillus niger [2] = test: Antifungal activity against Aspergillus niger after 72 to 96 hr by two-fold serial dilution method; type: functional
Salmonella typhi [3] = test: Antibacterial activity against Salmonella enterica subsp. enterica serovar Typhi after 24 hr by two-fold serial dilution method; type: functional
Cryptococcus neoformans [4] = test: Antifungal activity against Cryptococcus neoformans after 72 to 96 hr by two-fold serial dilution method; type: functional
Staphylococcus aureus [5] = test: Antibacterial activity against Staphylococcus aureus after 24 hr by two-fold serial dilution method; type: functional
Rhizopus [6] = test: Antifungal activity against Rhizopus sp. after 72 to 96 hr by two-fold serial dilution method; type: functional
Aspergillus flavus [7] = test: Antifungal activity against Aspergillus flavus after 72 to 96 hr by two-fold serial dilution method; type: functional
Klebsiella pneumoniae [8] = test: Antibacterial activity against Klebsiella pneumoniae after 24 hr by two-fold serial dilution method; type: functional
Escherichia coli [9] = test: Antibacterial activity against Escherichia coli after 24 hr by two-fold serial dilution method; type: functional
Pseudomonas aeruginosa = test: Antibacterial activity against Pseudomonas aeruginosa after 24 hr by two-fold serial dilution method; type: functional
Klebsiella pneumoniae [10] = test: Antibacterial activity against Klebsiella pneumoniae at 200 ug/mL after 24 hr by two-fold serial dilution method; type: functional, organism-based
Aspergillus flavus [11] = test: Antifungal activity against Aspergillus flavus at 200 ug/ml after 72 to 96 hr by two-fold serial dilution method; type: functional, organism-based
Candida albicans [12] = test: Antifungal activity against Candida albicans at 200 ug/ml after 72 to 96 hr by two-fold serial dilution method; type: functional, organism-based
Rhizopus [13] = test: Antifungal activity against Rhizopus sp. at 200 ug/ml after 72 to 96 hr by two-fold serial dilution method; type: functional, organism-based
Aspergillus niger [14] = test: Ratio of amphotericin-B MIC to compound MIC for Aspergillus niger; type: functional
Cryptococcus neoformans [15] = test: Ratio of amphotericin-B MIC to compound MIC for Cryptococcus neoformans; type: functional
Escherichia coli [16] = test: Ratio of ciprofloxacin MIC to compound MIC for Escherichia coli; type: functional
Klebsiella pneumoniae [17] = test: Ratio of ciprofloxacin MIC to compound MIC for Klebsiella pneumoniae; type: functional
Salmonella typhi [18] = test: Ratio of ciprofloxacin MIC to compound MIC for Salmonella enterica subsp. enterica serovar Typhi; type: functional
Staphylococcus aureus [19] = test: Ratio of ciprofloxacin MIC to compound MIC Staphylococcus aureus; type: functional

Structure (SMILES)	MIC (Candida albicans [1]) [µg/mL]	MIC (Aspergillus niger [2]) [µg/mL]	MIC (Salmonella typhi [3]) [µg/mL]	MIC (Cryptococcus neoformans [4]) [µg/mL]	MIC (Staphylococcus aureus [5]) [µg/mL]	MIC (Rhizopus [6]) [µg/mL]	MIC (Aspergillus flavus [7]) [µg/mL]	MIC (Klebsiella pneumoniae [8]) [µg/mL]	MIC (Escherichia coli [9]) [µg/mL]	MIC (Pseudomonas aeruginosa) [µg/mL]	inhibition (Klebsiella pneumoniae [10])	inhibition (Aspergillus flavus [11])	inhibition (Candida albicans [12])	inhibition (Rhizopus [13])	Ratio (Aspergillus niger [14])	Ratio (Cryptococcus neoformans [15])	Ratio (Escherichia coli [16])	Ratio (Klebsiella pneumoniae [17])	Ratio (Salmonella typhi [18])	Ratio (Staphylococcus aureus [19])
CN1C(c2ccc(Cl)cc2)CC(=NOCc2ccccc2)CC1c1ccc(Cl)cc1 (centres undefined)	100 (≈ 228 µM)	100 (≈ 228 µM)	100 (≈ 228 µM)	50 (≈ 114 µM)	200 (≈ 455 µM)	200 (≈ 455 µM)	200 (≈ 455 µM)	100 (≈ 228 µM)	50 (≈ 114 µM)	100 (≈ 228 µM)										
CN1C(c2ccccc2)CC(=NOCc2ccccc2)CC1c1ccccc1 (centres undefined)		100 (≈ 270 µM)	100 (≈ 270 µM)	100 (≈ 270 µM)	200 (≈ 540 µM)				200 (≈ 540 µM)	100 (≈ 270 µM)	inactive	inactive	inactive	inactive						
CCC1/C(=N\OCc2ccccc2)CC(c2ccccc2)N(C)C1c1ccccc1 (centres undefined)	100 (≈ 251 µM)	50 (≈ 125 µM)	50 (≈ 125 µM)	50 (≈ 125 µM)	100 (≈ 251 µM)	100 (≈ 251 µM)	100 (≈ 251 µM)	200 (≈ 502 µM)	100 (≈ 251 µM)	25 (≈ 62.7 µM)										
COc1ccc(C2CC(=NOCc3ccccc3)CC(c3ccc(OC)cc3)N2C)cc1 (centres undefined)	100 (≈ 232 µM)	50 (≈ 116 µM)	50 (≈ 116 µM)	50 (≈ 116 µM)	50 (≈ 116 µM)	50 (≈ 116 µM)	50 (≈ 116 µM)	100 (≈ 232 µM)	100 (≈ 232 µM)	100 (≈ 232 µM)										
O=C(O)c1cn(C2CC2)c2cc(N3CCNCC3)c(F)cc2c1=O [CIPROFLOXACIN]			50 (≈ 151 µM)						25 (≈ 75.4 µM)											
CC1/C(=N\OCc2ccccc2)CC(c2ccccc2)N(C)C1c1ccccc1 (centres undefined)	200 (≈ 520 µM)	50 (≈ 130 µM)	100 (≈ 260 µM)	100 (≈ 260 µM)	100 (≈ 260 µM)		100 (≈ 260 µM)		100 (≈ 260 µM)	50 (≈ 130 µM)	inactive			inactive						
CC(C)C1/C(=N\OCc2ccccc2)CC(c2ccccc2)N(C)C1c1ccccc1 (centres undefined)	50 (≈ 121 µM)	100 (≈ 242 µM)	50 (≈ 121 µM)	25 (≈ 60.6 µM)	100 (≈ 242 µM)	200 (≈ 485 µM)		100 (≈ 242 µM)	50 (≈ 121 µM)	50 (≈ 121 µM)		inactive								
Cc1ccc(C2C/C(=N/OCc3ccccc3)C(C)C(c3ccc(C)cc3)N2C)cc1 (centres undefined)	50 (≈ 121 µM)	25 (≈ 60.6 µM)	50 (≈ 121 µM)	12.5 (≈ 30.3 µM)	50 (≈ 121 µM)	25 (≈ 60.6 µM)	50 (≈ 121 µM)	50 (≈ 121 µM)	50 (≈ 121 µM)	25 (≈ 60.6 µM)					2	2				
Cc1ccc(C2CC(=NOCc3ccccc3)CC(c3ccc(C)cc3)N2C)cc1 (centres undefined)	100 (≈ 251 µM)	50 (≈ 125 µM)	100 (≈ 251 µM)	50 (≈ 125 µM)	100 (≈ 251 µM)	50 (≈ 125 µM)	100 (≈ 251 µM)	100 (≈ 251 µM)	50 (≈ 125 µM)	100 (≈ 251 µM)										
CC1/C(=N\OCc2ccccc2)CC(c2ccc(Cl)cc2)N(C)C1c1ccc(Cl)cc1 (centres undefined)	100 (≈ 221 µM)	25 (≈ 55.1 µM)	25 (≈ 55.1 µM)	25 (≈ 55.1 µM)	50 (≈ 110 µM)	100 (≈ 221 µM)	50 (≈ 110 µM)	25 (≈ 55.1 µM)	12.5 (≈ 27.6 µM)	50 (≈ 110 µM)							1	1	1	
COc1ccc(C2C/C(=N/OCc3ccccc3)C(C)C(c3ccc(OC)cc3)N2C)cc1 (centres undefined)	25 (≈ 56.2 µM)	25 (≈ 56.2 µM)	50 (≈ 112 µM)	12.5 (≈ 28.1 µM)	12.5 (≈ 28.1 µM)	12.5 (≈ 28.1 µM)	25 (≈ 56.2 µM)	25 (≈ 56.2 µM)	25 (≈ 56.2 µM)	12.5 (≈ 28.1 µM)								2		2
C[C@@H]1[C@H](O)[C@@H](C)/C=C/C=C/C=C/C=C/C=C/C=C/C=C/[C@H](O[C@@H]2O[C@H](C)[C@@H](O)[C@H](N)[C@@H]2O)C[C@@H]2O[C@](O)(C[C@@H](O)C[C@@H](O)[C@H](O)CC[C@@H](O)C[C@@H](O)CC(=O)O[C@H]1C)C[C@H](O)[C@H]2C(=O)O [AMPHOTERICIN B]	25 (≈ 27.1 µM)	50 (≈ 54.1 µM)		25 (≈ 27.1 µM)		25 (≈ 27.1 µM)	50 (≈ 54.1 µM)													
